Each structure is given as a SMILES string. Calls of active or inactive are those of the source. The calls are words filed in the database; no cut-off is given here. A value given as a limit tells only on which side of the number the result lay.

Data set [1] can be described thus: Oral bioavailability in rat at 2 mg/kg. The data set is classed as ADME, organism-based. To be noted: in vivo.
In data set [2] the target is T1, Melanin-concentrating hormone receptor 2 (Homo sapiens, UniProt Q969V1). The experiment in a line: Antagonist activity at human MCHR2 receptor expressed in CHO cells assessed as inhibition of MCH-stimulated Ca2+ flux preincubated for 10 mins prior to MCH-stimulation by FLIPR assay. Type of data set: functional, cell-based.
Data set [3] in a line: Mean residence time in rat at 0.5 mg/kg, iv. To be noted: in vivo. The arrangement: dose 0.5 mg/kg, route intravenous. Type of data set: ADME, organism-based.
The nature of data set [4]: Clearance in rat at 0.5 mg/kg, iv. Type of data set: ADME, organism-based. The arrangement: dose 0.5 mg/kg, route intravenous. To be noted: in vivo.
Data set [5] concerns the target T2, Melanin-concentrating hormone receptor 1 (Homo sapiens, UniProt Q99705). Put plainly: Antagonist activity at MCHR1 by FLIPR assay. Type of data set: functional.
In data set [6] the target is D(2) dopamine receptor (Homo sapiens, UniProt P14416). Put plainly: Inhibition of dopamine D2 receptor.
The target of data set [7] is Sodium-dependent serotonin transporter (Homo sapiens, UniProt P31645). The experiment in a line: Inhibition of serotonin transporter.
Data set [8] can be described thus: Mean residence time in Beagle dog. The data set is classed as ADME, organism-based, Canis lupus familiaris. The following applies: in vivo.
A short description of data set [9]: Clearance in rhesus monkey. The data set is classed as ADME, organism-based, Macaca mulatta. The following applies: in vivo.
For data set [10], the species on record is Homo sapiens. Put plainly: Selectivity ratio of IC50 for serotonin transporter to IC50 for human MCHR2 receptor.
Data set [11] in a line: Oral bioavailability in rhesus monkey at 2 mg/kg. To be noted: in vivo. Type of data set: ADME, organism-based, Macaca mulatta.
The species entered for data set [12] is Homo sapiens. Put plainly: Selectivity ratio of IC50 for dopamine D2 receptor to IC50 for human MCHR2 receptor.
Data set [13] addresses T2, Melanin-concentrating hormone receptor 1. Put plainly: Antagonist activity at MCHR1 up to 50 uM by FLIPR assay. Type of data set: functional.
In data set [14] the target is Voltage-gated inwardly rectifying potassium channel KCNH2 (Homo sapiens, UniProt Q12809). The experiment in a line: Inhibition of human ERG by rubidium [86Rb] efflux assay.
Data set [15] in a line: Oral bioavailability in Beagle dog at 2 mg/kg. The data set is classed as ADME, organism-based, Canis lupus familiaris. The following applies: in vivo.
The target of data set [16] is T1, Melanin-concentrating hormone receptor 2. Put plainly: Displacement of [3H]N-(1'-((9-ethyl-9H-carbazol-3-yl)methyl)-2,3-dihydrospiro[indene-1,4'-piperidine]-3-yl)acetamide from human MCHR2 expressed in HEK293 cells after 2 hrs. The data set is classed as cell-based. For orientation: In a radioligand displacement assay an active substance lowers the binding of a labelled ligand.

The nature of data set [17]: Mean residence time in rhesus monkey. The data set is classed as ADME, organism-based, Macaca mulatta. To be noted: in vivo.
The nature of data set [18]: Clearance in Beagle dog. Type of data set: ADME, organism-based, Canis lupus familiaris. The following applies: in vivo.
Data set [19] addresses T2, Melanin-concentrating hormone receptor 1. The experiment in a line: Binding affinity to MCHR1 up to 10 uM.

T1 sequence (Q969V1 whole entry): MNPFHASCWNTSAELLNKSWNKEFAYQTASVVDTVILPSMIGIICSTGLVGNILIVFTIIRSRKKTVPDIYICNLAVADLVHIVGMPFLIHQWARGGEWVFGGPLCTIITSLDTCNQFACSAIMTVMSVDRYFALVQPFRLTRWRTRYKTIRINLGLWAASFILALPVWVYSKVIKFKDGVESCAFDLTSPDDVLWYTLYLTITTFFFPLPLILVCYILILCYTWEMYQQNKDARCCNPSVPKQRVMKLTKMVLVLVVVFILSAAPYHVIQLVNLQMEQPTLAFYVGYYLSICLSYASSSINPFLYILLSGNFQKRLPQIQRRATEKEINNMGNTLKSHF
T2 sequence (Q99705 whole entry): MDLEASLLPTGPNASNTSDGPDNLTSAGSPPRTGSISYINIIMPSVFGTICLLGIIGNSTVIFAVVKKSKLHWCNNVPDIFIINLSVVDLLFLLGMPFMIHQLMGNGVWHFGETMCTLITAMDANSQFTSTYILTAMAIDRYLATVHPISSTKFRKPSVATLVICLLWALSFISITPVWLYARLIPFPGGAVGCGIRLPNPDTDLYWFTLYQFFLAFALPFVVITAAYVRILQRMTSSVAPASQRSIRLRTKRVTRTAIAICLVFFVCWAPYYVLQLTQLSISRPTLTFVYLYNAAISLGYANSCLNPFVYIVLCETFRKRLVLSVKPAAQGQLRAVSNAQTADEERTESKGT
D(2) dopamine receptor, sequence (P14416 whole entry): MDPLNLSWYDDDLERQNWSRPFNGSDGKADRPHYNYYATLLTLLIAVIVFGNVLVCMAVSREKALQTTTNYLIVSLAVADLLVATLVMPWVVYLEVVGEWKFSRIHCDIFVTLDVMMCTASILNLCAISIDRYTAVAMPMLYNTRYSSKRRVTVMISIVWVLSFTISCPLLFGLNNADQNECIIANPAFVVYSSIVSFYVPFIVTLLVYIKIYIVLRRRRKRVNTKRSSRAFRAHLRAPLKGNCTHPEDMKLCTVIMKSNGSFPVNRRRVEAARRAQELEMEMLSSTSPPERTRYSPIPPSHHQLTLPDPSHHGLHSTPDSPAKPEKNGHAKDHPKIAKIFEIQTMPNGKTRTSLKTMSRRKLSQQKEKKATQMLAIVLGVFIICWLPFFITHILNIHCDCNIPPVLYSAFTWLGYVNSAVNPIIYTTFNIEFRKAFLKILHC
Sodium-dependent serotonin transporter, sequence (P31645 whole entry): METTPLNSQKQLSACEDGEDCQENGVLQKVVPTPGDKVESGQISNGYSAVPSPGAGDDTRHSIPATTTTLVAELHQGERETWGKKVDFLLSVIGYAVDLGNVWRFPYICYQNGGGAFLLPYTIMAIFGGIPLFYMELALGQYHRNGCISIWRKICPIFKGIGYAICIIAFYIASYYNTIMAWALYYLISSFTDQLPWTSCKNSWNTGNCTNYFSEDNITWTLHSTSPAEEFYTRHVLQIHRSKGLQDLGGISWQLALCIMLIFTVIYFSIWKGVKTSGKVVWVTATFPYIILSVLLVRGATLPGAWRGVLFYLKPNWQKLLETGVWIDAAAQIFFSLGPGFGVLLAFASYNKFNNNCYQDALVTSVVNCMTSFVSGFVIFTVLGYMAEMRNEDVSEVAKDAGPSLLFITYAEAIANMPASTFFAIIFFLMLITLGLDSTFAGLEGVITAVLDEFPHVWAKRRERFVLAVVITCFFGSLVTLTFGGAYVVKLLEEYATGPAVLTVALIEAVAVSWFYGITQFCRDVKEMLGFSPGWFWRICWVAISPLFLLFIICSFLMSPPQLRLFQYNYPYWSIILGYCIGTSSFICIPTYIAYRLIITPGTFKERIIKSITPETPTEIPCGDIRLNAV
Voltage-gated inwardly rectifying potassium channel KCNH2, sequence (Q12809 whole entry): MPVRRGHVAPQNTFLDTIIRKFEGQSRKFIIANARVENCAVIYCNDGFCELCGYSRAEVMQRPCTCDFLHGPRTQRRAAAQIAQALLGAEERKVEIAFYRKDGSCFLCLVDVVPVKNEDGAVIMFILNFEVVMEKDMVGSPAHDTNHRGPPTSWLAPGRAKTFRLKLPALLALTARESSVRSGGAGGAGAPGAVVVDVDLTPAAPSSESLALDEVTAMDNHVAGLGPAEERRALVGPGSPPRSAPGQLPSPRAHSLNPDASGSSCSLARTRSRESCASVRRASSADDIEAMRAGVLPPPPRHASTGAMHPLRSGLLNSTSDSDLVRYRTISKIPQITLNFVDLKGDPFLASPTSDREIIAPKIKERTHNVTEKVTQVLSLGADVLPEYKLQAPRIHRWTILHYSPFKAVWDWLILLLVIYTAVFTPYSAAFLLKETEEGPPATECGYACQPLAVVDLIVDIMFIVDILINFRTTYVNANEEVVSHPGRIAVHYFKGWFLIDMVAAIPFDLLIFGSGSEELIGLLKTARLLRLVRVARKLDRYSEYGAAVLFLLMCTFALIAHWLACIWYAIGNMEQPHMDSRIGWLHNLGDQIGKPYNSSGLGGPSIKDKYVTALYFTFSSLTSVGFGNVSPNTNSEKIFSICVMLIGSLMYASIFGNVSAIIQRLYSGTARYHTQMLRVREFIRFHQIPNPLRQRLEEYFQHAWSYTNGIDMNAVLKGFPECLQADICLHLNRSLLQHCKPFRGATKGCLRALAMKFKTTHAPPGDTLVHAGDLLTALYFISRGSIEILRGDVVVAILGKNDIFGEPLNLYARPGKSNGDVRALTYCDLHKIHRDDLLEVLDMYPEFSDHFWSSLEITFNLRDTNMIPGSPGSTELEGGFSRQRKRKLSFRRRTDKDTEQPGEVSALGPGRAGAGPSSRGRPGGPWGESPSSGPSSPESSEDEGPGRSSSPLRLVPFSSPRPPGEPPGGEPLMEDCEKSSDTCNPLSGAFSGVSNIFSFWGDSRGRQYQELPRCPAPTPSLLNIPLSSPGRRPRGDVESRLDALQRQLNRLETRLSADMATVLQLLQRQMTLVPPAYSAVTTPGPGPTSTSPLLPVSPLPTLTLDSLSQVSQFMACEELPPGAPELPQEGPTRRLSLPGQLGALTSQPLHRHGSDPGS

In the case of `CC(=O)N[C@@H]1CC2(CCN(Cc3ccc4[nH]c5ccccc5c4c3)CC2)c2ccccc21`, in [1], the bioavailability was 7.5%. Further, the IC50 in data set [2] was 0.1 nM. The MRT in [3] was 18.2 h. Also, the clearance in [4] was 20 mL/min/kg.
Take `CC(=O)N[C@@H]1CC2(CCN(Cc3ccc4[nH]c5ccc(C(F)(F)F)cc5c4c3)CC2)c2ccccc21`: in data set [2], the IC50 stood at 678 nM.
Still for that read-out and setting: as for `CC(=O)N[C@H]1c2ccccc2C2(CCN(Cc3ccc4[nH]c5ccccc5c4c3)CC2)[C@@H]1O` (racemic), the figure is 8 nM; as for `CCn1c2ccccc2c2cc(CN3CCC4(CC3)CC(NC(C)=O)c3ccccc34)ccc21` (racemic), 0.1 nM; as for `CCn1c2ccccc2c2cc(CN3CCC4(CC3)c3ccccc3[C@H](O)[C@H]4O)ccc21` (racemic), 150 nM.
Take `O[C@H]1Cc2ccccc2C12CCN(Cc1ccc3[nH]c4ccccc4c3c1)CC2`: the IC50 in data set [2] amounted to 80 nM.
The same measure, in the same setting: then `CCn1c2ccccc2c2cc(CN3CCC4(CC3)c3ccccc3[C@H](O)[C@@H]4O)ccc21` (racemic), with 250 nM; and `COC(=O)n1c2ccccc2c2cc(CN3CCC4(C=Cc5ccccc54)CC3)ccc21`, with 300 nM.
On the same count and under the same terms, then `C1=CC2(CCN(Cc3ccc4[nH]c5ccccc5c4c3)CC2)c2ccccc21`, with 100 nM.
`O[C@@H]1Cc2ccccc2C12CCN(Cc1ccc3[nH]c4ccccc4c3c1)CC2` yielded a bioavailability in [1] of 5.9%. In addition, in [2], the half-maximal inhibitory concentration (IC50) is 10 nM. The compound also came in with an MRT in [3] of 2.8 h. In addition, the clearance in [4] is 145 mL/min/kg.
With `CCn1c2ccccc2c2cc(CN3CCC4(C=Cc5ccccc54)CC3)ccc21`, the IC50 in data set [2] stood at 1000 nM; in data set [5], 20000 nM.
As for `CCn1c2ccccc2c2cc(CCN3CCC4(C=Cc5ccccc54)CC3)ccc21`, the IC50 in data set [2] came to 10000 nM.
Still for that read-out and setting: then `CS(=O)(=O)n1c2ccccc2c2cc(CN3CCC4(C=Cc5ccccc54)CC3)ccc21`, with 200 nM; and `CCn1c2ccccc2c2cc(C(=O)N3CCC4(C=Cc5ccccc54)CC3)ccc21`, with 60000 nM.
Consider `CC(=O)n1c2ccccc2c2cc(CN3CCC4(C=Cc5ccccc54)CC3)ccc21`, for which the IC50 in [2] worked out at 70 nM.
In the case of `CC(=O)N[C@@H]1CC2(CCN(Cc3ccc4[nH]c5ccc(Cl)cc5c4c3)CC2)c2ccccc21`, in [1], the bioavailability worked out at 49%. The IC50 is 1 nM in [2], 500 nM in [6] and 100 nM in [7]. Besides, in data set [3], the MRT was found to be 9.2 h. Also, in data set [4], the clearance was 13.3 mL/min/kg.
Regarding `CC(=O)N[C@@H]1CC2(CCN(Cc3ccc4[nH]c5ccc(F)cc5c4c3)CC2)c2ccccc21`, in data set [2], the IC50 amounted to 10 nM.
Same read-out and setting: then `CCn1c2ccccc2c2cc(CN3CCC4(CC3)c3ccccc3CC4NC(C)=O)ccc21` (racemic), with 250 nM.
Take `CCn1c2ccccc2c2cc(CN3CCC4(CC3)c3ccccc3[C@H](NC(C)=O)[C@H]4O)ccc21` (racemic): in data set [1], the bioavailability came to 9%. Further, the IC50 in [2] came to 100 nM. Further, the MRT in [3] is 14.2 h. Also, the clearance in [4] was 36.7 mL/min/kg.
With `CCn1c2ccccc2c2cc(NC(=O)N3CCC4(C=Cc5ccccc54)CC3)ccc21`, the IC50 in data set [2] came out at 60000 nM.
As to `CC(=O)N[C@@H]1CC2(CCN(Cc3ccc4c(c3)c3ccccc3n4C(N)=O)CC2)c2ccccc21`, the bioavailability in [1] turned out to be 37%; in data set [11] it was 47%; in data set [15] it was 73%. Besides, the MRT amounted to 11 h in [8], 18 h in [3] and 6.1 h in data set [17]. The clearance in data set [9] is 10 mL/min/kg; in data set [4] it was 16.7 mL/min/kg; in data set [18], 10 mL/min/kg. Moreover, the Ratio IC50 in data set [10] and in data set [12] was over 500 each time. The result in data set [13] and in data set [19] was inactive. For the same compound, the IC50 was found to be 2000 nM in data set [14], 1 nM in [2], 1500 nM in [6] and 10000 nM in [7]. The compound further showed a Ki in [16] of 13 nM.
With `CCn1c2ccccc2c2cc(CN3CCC4(CC3)c3ccccc3CC4O)ccc21` (racemic), in data set [2], the IC50 was found to be 30 nM.
Still for that read-out and setting: as for `CCC(=O)n1c2ccccc2c2cc(CN3CCC4(C=Cc5ccccc54)CC3)ccc21`, the figure is 100 nM; as for `CC(=O)N[C@H]1CC2(CCN(Cc3ccc4[nH]c5ccccc5c4c3)CC2)c2ccccc21`, 13 nM; as for `NC(=O)n1c2ccccc2c2cc(CN3CCC4(C=Cc5ccccc54)CC3)ccc21`, 4 nM.
As to `CCn1c2ccccc2c2cc(CCCN3CCC4(C=Cc5ccccc54)CC3)ccc21`, the IC50 in [2] came to 15000 nM.
On to `CC(=O)N[C@@H]1CC2(CCN(Cc3ccc4[nH]c5ccc(Br)cc5c4c3)CC2)c2ccccc21`, for which the IC50 in data set [2] amounted to 10 nM.
On the same count and under the same terms, then `CN(C)C(=O)n1c2ccccc2c2cc(CN3CCC4(C=Cc5ccccc54)CC3)ccc21`, with 4 nM; and `CCn1c2ccccc2c2cc(CN3CCC4(CC3)CC(O)c3ccccc34)ccc21` (racemic), with 200 nM.

In general, bioavailability refers to dose-corrected exposure relative to a reference, in per cent. The term IC50 denotes the concentration that inhibits the measured activity by half. Broadly, the MRT is the average time that molecules of a dose stay in the body. Broadly, the clearance is the volume of plasma or blood freed of the substance per unit of time. The term Ki denotes a measure of affinity in units of concentration, obtained from inhibition or displacement.

(Values after ChEMBL document CHEMBL1932960, “Discovery and characterization of a potent and selective antagonist of melanin-concentrating hormone receptor 2” (Bioorg Med Chem Lett, 2012).)
